Test results as given in patent US6472417B1, “Synergistic pesticidal composition of pyrethroid and N-phenyl-pyrazole” (priority 1994, dated 2002).
Like-named read-outs stand apart in the source and are kept apart here.

Test system: Coptotermes formosanusus Shiraki
Experiment: Termite control soil treatment test (Japan Wood Preservation Association Standards No. 13, 1987): bored depth, damage by eating, termite control effect
Type: in vivo
Settings: for Bored depth (mm) 14 days later: treated soil layer 1 cm
Text: In the description of these embodiments, the term “part(s)” means part(s) by weight. The test method of embodiments was in accordance with Japan Wood Preservation Association Standards No. 13, 1987, “Standards for Testing Methods of Termite Controlling Effects and Performance of Termite Controlling Agents for Soil Treatment (I)”.
A testing apparatus was used in which two glass cylinders (each about 5 cm in diameter and about 12 cm in height) are connected at about 2 cm from the bottom with a glass tube about 1.5 cm in diameter and about 10 cm in length (graduated at 5-mm intervals for 5 cm at the center). The one glass cylinder was filled with about 60 g of non-treated soil adjusted to a moisture content of about 25%, and the other glass cylinder was filled with about 0.29 g of filter paper (5.5 mm in diameter). The glass tube was filled, at a thickness of 1 cm, with test soil prepared by mixing 2.4 g of non-treated sandy soil which had passed through a 20-mesh screen and had been dried at 60° C. until a constant weight had been achieved, with 0.45 g of the solution of the test composition of a predetermined concentration, and the mixture was allowed to stand for 3 weeks in a room without weather resistance treatment. The glass tube was connected to the glass cylinders.
In the glass cylinder filled with non-treated soil, 200 workers and 20 soldiers of Coptotermes formosanusus Shiraki were placed, and the testing apparatus was kept at a constant temperature chamber controlled at a temperature of 28° C., and a relative humidity of 70% or higher.
The bored depth (millimeters=mm), damage by eating, and the termite control effect were determined 14 days after insects were put in place, and the effect was evaluated in accordance with the following criteria: […]

[1] = Concentration (%) 0.005, single ingredient
[2] = Concentration (%) 0.01, single ingredient
[3] = Coptotermes, soil, 336 h, read-out: Termite control effect 14 days later
[4] = Concentration (%) 0.025, single ingredient
[5] = Concentration (%) 0.05, single ingredient
[6] = Concentration (%) 0.02, single ingredient
[7] = Concentration (%) 0.1, single ingredient
[8] = Concentration (%) 0.002, single ingredient

Structure (SMILES) | Damage by eating 14 days later [1] | Bored depth (mm) 14 days later [1] | Damage by eating 14 days later [2] | Bored depth (mm) 14 days later [2] | pest or weed control at 0.005 % [3] | pest or weed control at 0.01 % [3] | Damage by eating 14 days later [5] | Bored depth (mm) 14 days later [5] | pest or weed control at 0.05 % [3] | Damage by eating 14 days later [6] | Bored depth (mm) 14 days later [6] | also measured
Cc1c(COC(=O)[C@@H]2[C@H](/C=C(\Cl)C(F)(F)F)C2(C)C)cccc1-c1ccccc1 (racemic) [Bifenthrin, 2-methylbiphenyl-3-yl-methyl (Z)-1RS,3RS)-3-(2-chloro-3,3,3-trifluoroprop-1-enyl)-2-2-dimnethylcyclopropane carboxylate] | +++ (51% or more compared with non-treatment) | >10 mm | +++ (51% or more compared with non-treatment) | >10 mm | < 49% | < 49% |  |  |  |  |  | 
CC1(C)[C@H](C(=O)O[C@@H](C#N)c2ccc(F)c(Oc3ccccc3)c2)[C@@H]1C=C(Cl)Cl (racemic) [Cyfluthrin, (RS)-a-cyano-4-fluoro-3-phenoxybenzyl (1RS, 3RS)-(1RS, 3RS)-3-(2,2-dichlorovinyl)-2,2-dimethylcyclopropane carboxylate] | +++ (51% or more compared with non-treatment) | >10 mm |  |  |  |  |  |  |  |  |  | Termite control effect 14 days later [1]: D (49% lethal or less); Damage by eating 14 days later [4]: None; Termite control effect 14 days later [4]: D (49% lethal or less); Bored depth (mm) 14 days later [4]: >10 mm
CC1(C)C(C=C(Cl)Cl)C1C(=O)OC(C#N)c1cccc(Oc2ccccc2)c1 (racemic) [Cypermethrin, (RS)-a-cyano-3-phenoxybenzyl (1RS,3RS)-(1RS,3SR)-3-(2,2-dichlorovinyl)-2,2-dimethylcyclopropane carboxylate] | +++ (51% or more compared with non-treatment) | >10 mm |  |  | < 49% |  |  |  |  |  |  | Damage by eating 14 days later [4]: None; Bored depth (mm) 14 days later [4]: >10 mm; pest or weed control at 0.025 % [3]: < 49%
CC(C)C(C(=O)OC(C#N)c1cccc(Oc2ccccc2)c1)c1ccc(Cl)cc1 (racemic) [Fenvalerate, (RS)-a-cyano-3-phenoxybenzyl (RS)-2-(4-chlorophenyl)-3-methylbutanoate] |  |  | +++ (51% or more compared with non-treatment) | >10 mm |  | < 49% | + (10% or less compared with non-treatment) | >10 mm | 100% |  |  | 
CC1(C)C(C=C(Cl)Cl)C1C(=O)OCc1cccc(Oc2ccccc2)c1 (racemic) [Permethrin, 3-phenoxybenzyl (1RS,3RS)-(1RS,3RS)-(2,2-dichlorovinyl)-2,2-diimethylcyclopropane carboxylate] |  |  |  |  |  |  |  |  |  | +++ (51% or more compared with non-treatment) | >10 mm | Damage by eating 14 days later [7]: None; Bored depth (mm) 14 days later [7]: >10 mm; pest or weed control at 0.02 % [3]: < 49%; pest or weed control at 0.1 % [3]: < 49%
N#Cc1nn(-c2c(Cl)cc(C(F)(F)F)cc2Cl)c(N)c1[S+]([O-])C(F)(F)F (stereo not drawn) [Compound A, 5-amino-3-cyano-1-(2,6-dichloro-4-trifluoromethylphenyl)-4-trifluoromethylsulphinylpyrazole] | ++ (11-50% or less compared with non-treatment) | >10 mm | + (10% or less compared with non-treatment) | >10 mm | 100% | 100% |  |  |  | + (10% or less compared with non-treatment) | >10 mm | pest or weed control at 0.02 % [3]: 100%
CCOc1ccc(C(C)(C)COCc2cccc(Oc3ccccc3)c2)cc1 [Ethofenprox, 2-(4-ethoxyphenyl)-2-methylpropyl-3-phenoxybenzyl ether] |  |  |  |  |  |  |  |  |  | +++ (51% or more compared with non-treatment) | >10 mm | Termite control effect 14 days later [6]: D (49% lethal or less); Damage by eating 14 days later [7]: None; Termite control effect 14 days later [7]: D (49% lethal or less); Bored depth (mm) 14 days later [7]: >10 mm
CC(C)[C@H](Nc1ccc(C(F)(F)F)cc1Cl)C(=O)OC(C#N)c1cccc(Oc2ccccc2)c1 (stereo partly drawn) [Fluvalinate] |  |  |  |  |  |  | +++ (51% or more compared with non-treatment) | >10 mm | < 49% |  |  | 
CCOc1ccc([Si](C)(C)CCCc2ccc(F)c(Oc3ccccc3)c2)cc1 [Silafluofen, 4-ethoxyphenyl-[3-(3-phenoxy-4-fluorophenyl)propyl](dimnethyl)silane] |  |  | +++ (51% or more compared with non-treatment) | >10 mm |  | < 49% | + (10% or less compared with non-treatment) | >10 mm | 100% |  |  | 
CC1(C)[C@H](C(=O)O[C@H](C#N)c2cccc(Oc3ccccc3)c2)[C@@H]1C(Br)C(Br)(Br)Br (stereo partly drawn) [Tralomethrin, (S)-a-cyano-3-phenoxybenzyl (1R,3S)-2,2-dinethyl-3-(1,2,2,2-tetrabromoethyl)cyclopropane carboxylate] |  |  | +++ (51% or more compared with non-treatment) | >10 mm |  |  |  |  |  |  |  | Damage by eating 14 days later [8]: +++ (51% or more compared with non-treatment); Bored depth (mm) 14 days later [8]: >10 mm; pest or weed control at 0.002 % (Coptotermes, soil, 336 h, Concentration (%) 0.002, single ingredient, read-out: Termite control effect 14 days later): < 49%; pest or weed control at 0.01 % (Coptotermes, soil, 336 h, Concentration (%) 0.01, single ingredient, read-out: Termite control effect 14 days later): < 49%
